Measured values as given in patent US8772499B2, “TRPV3 modulators” (AbbVie Inc., priority 2011, dated 2014).
Where two headings read alike, the source gives them in different places.

What was measured:
[1] = In vitro human microsomal stability assay; type: in vitro ADME; details: human, microsomes, 0.5 h, 0.5 μM, pH 7.4
In short: (§1)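 NADPH-fortified liver microsome incubations at 37° C. served for both species: Sprague-Dawley rat and human.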

human TRPV3 = biological target: T1, human TRPV3 (Homo sapiens, UniProt Q8NET8); experiment: In vitro antagonism of recombinant human TRPV3 activation (FLIPR Tetra calcium assay); type: cell-based; details: HEK293 cells stably expressing human TRPV3, agonist 2-APB at 80 μM
T1 construct: expressed in transfected cells
T1 sequence (Q8NET8 1-790): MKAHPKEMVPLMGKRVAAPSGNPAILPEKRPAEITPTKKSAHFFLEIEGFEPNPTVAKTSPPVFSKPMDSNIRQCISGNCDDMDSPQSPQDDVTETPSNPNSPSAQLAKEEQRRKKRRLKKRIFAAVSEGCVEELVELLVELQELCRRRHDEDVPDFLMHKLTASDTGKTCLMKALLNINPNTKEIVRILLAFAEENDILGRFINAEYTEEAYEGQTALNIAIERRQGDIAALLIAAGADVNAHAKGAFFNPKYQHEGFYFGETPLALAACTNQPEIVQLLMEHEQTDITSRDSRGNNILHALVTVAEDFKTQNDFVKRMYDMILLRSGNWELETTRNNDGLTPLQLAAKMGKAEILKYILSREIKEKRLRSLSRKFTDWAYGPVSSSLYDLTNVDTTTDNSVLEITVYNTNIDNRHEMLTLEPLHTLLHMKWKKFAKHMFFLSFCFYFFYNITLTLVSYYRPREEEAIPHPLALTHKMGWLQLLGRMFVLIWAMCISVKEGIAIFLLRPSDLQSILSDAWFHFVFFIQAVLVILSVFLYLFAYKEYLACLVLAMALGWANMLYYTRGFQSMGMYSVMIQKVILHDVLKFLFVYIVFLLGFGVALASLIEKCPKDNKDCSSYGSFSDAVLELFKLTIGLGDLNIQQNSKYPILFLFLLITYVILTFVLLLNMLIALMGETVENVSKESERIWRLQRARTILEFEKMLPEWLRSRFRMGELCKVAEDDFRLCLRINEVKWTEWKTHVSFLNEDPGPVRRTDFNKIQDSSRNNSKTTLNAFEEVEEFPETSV
In short: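 HEK293 cells stably expressing human TRPV3, loaded with Calcium-4 dye for 90–120 min, received compound in DPBS, then 80 μM 2-APB (EC80) 3 min later. Max-minus-min fluorescence expressed as % of 2-APB response without antagonist; IC50 values mostly averages of n≥2 runs.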

[2] = In vitro rat microsomal stability assay; type: in vitro ADME, rat (Sprague-Dawley); details: Sprague-Dawley, rat, microsomes, 0.5 h, 0.5 μM, pH 7.4
In short: as §1

[3] = actual measured value shown parenthetically, in most cases average of at least two runs, read-out: IC50
[4] = reported range, read-out: IC50 (range class)

| HUMAN MICROSOMAL STABILITY (% REMAINING AFTER 30 MINUTES) [1] [%] | IC50 (human TRPV3; [3]) [µM] | RAT MICROSOMAL STABILITY (% REMAINING AFTER 30 MINUTES) [2] [%] | IC50 (human TRPV3; [4]) [µM] | Compound |
| --- | --- | --- | --- | --- |
| 57 | 3.65 | 72 |  | O=C1CC(c2cccc(C(F)(F)F)c2)(C(O)c2ccccn2)C1 (centres unmarked) [Example 245, 3-[hydroxy(pyridin-2-yl)methyl]-3-[3-(trifluoromethyl)phenyl]-cyclobutanone] |
| 67 | 19 | 5.7 |  | Cn1c(C2(C(O)c3ccccn3)CCC2)nc2ccccc21 (centres unmarked) [Example 275, [1-(1-methyl-1H-benzimidazol-2-yl)cyclobutyl](pyridin-2-yl)methanol] |
| 83 | 6.6 | >85 |  | O=C1CC(c2cc(C(F)(F)F)ccn2)([C@@H](O)c2ccccn2)C1 [Example 278, 3-[(R)-hydroxy(pyridin-2-yl)methyl]-3-[4-(trifluoromethyl)pyridin-2-yl]-cyclobutanone] |
| >85 | > 20 | >85 | > 20 | O=C1CC(c2ccnc(C(F)(F)F)c2)([C@H](O)c2ccccn2)C1 [Example 299, 3-[(S)-hydroxy(pyridin-2-yl)methyl]-3-[2-(trifluoromethyl)pyridin-4-yl]-cyclobutanone] |
| >85 | 5.25 | >85 |  | O[C@H](c1ccccn1)[C@]1(c2ccc(C(F)(F)F)cc2)C[C@H](O)C1 [Example 200, cis-3-[(S)-hydroxy(pyridin-2-yl)methyl]-3-[4-(trifluoromethyl)phenyl]-cyclobutanol] |
| 55 | 0.36 | 3.8 |  | OC(c1ccccn1)C1(c2ccc(OC(F)(F)F)cc2)CCCO1 (single isomer, unassigned) [Example 94, (anti)-pyridin-2-yl{2-[4-(trifluoromethoxy)phenyl]tetrahydrofuran-2-yl}methanol] |
| >85 | > 20 | 51 | > 20 | OC(c1ccccn1)C1(c2ccc(OC(F)(F)F)cc2)CCNCC1 (centres unmarked) [Example 144, pyridin-2-yl{4-[4-(trifluoromethoxy)phenyl]piperidin-4-yl}methanol] |
| 31 | 2.93 | 0.23 |  | OC(c1ccccn1)C1(c2cccc(C(F)(F)F)c2)CCCO1 (single isomer, unassigned) [Example 107, (syn)-pyridin-2-yl{2-[3-(trifluoromethyl)phenyl]tetrahydrofuran-2-yl}-methanol] |
| 54 | 0.19 | 48 |  | OC1CC(c2cccc(OC(F)(F)F)c2)(C(O)c2ccccn2)C1 (single isomer, unassigned) [Example 272] |
| 2.4 | > 20 | <0.01 | > 20 | OC(C1CCc2cccnc21)C1(c2ccc(F)c(F)c2)CCC1 (stereo not drawn) [Example 172, (syn)-[1-(3,4-difluorophenyl)cyclobutyl][6,7-dihydro-5H-cyclopenta[b]-pyridin-7-yl]methanol] |
| 6.4 | 0.3 | 0.16 |  | OC(c1ccccn1)C1(c2ccccc2OC(F)(F)F)CCCO1 (single isomer, unassigned) [Example 97, (syn)-pyridin-2-yl{2-[2-(trifluoromethoxy)phenyl]tetrahydrofuran-2-yl}-methanol] |
| 35 | 0.78 | 16 |  | OC(c1ccccn1)C1(c2ccc(Cl)c(Cl)c2)CC(F)(F)C1 (centres unmarked) [Example 82, [1-(3,4-dichlorophenyl)-3,3-difluorocyclobutyl](pyridin-2-yl)methanol] |
| 9.5 | > 20 | <0.01 | > 20 | OC(C1CCc2cccnc21)C1(c2ccc(Cl)c(Cl)c2)CCC1 (stereo not drawn) [Example 167, (anti)-[1-(3,4-dichlorophenyl)cyclobutyl][6,7-dihydro-5H-cyclopenta[b]-pyridin-7-yl]methanol] |
| <0.01 | 14.6 | <0.01 |  | CC(=O)O[C@H](c1ccccn1)C1(c2ccc(OC(F)(F)F)cc2)CCC1 [Example 288, (S)-pyridin-2-yl{1-[4-(trifluoromethoxy)phenyl]cyclobutyl}methyl acetate] |
| 55 | 3.11 | 10 |  | OC(c1ccccn1)C1(C2CCC(F)(F)CC2)CCC1 (centres unmarked) [Example 274, [1-(4,4-difluorocyclohexyl)cyclobutyl](pyridin-2-yl)methanol] |
| 45 | 5.1 | <0.01 |  | OC(c1ccccn1)C1(c2cccc(C(F)(F)F)c2)CC2(C1)OCCO2 (centres unmarked) [Example 242, pyridin-2-yl{2-[3-(trifluoromethyl)phenyl]-5,8-dioxaspiro[3.4]oct-2-yl}-methanol] |
| <0.01 | 1.98 | <0.01 |  | OC(C1CCCc2cccnc21)C1(c2ccc(Cl)c(Cl)c2)CCC1 (single isomer, unassigned) [Example 181, (anti)-[1-(3,4-dichlorophenyl)cyclobutyl][5,6,7,8-tetrahydroquinolin-8-yl]-methanol] |
| 12 | 0.44 | 13 |  | O[C@H](c1ccccn1)C1(c2ccc(C(F)(F)F)cc2)CCC1 [Example 28, (S)-pyridin-2-yl{1-[4-(trifluoromethyl)phenyl]cyclobutyl}methanol] |
| 12 | 5.32 | <0.01 |  | OC(c1ccccn1)C1(C2=CCC(F)(F)CC2)CCC1 (centres unmarked) [Example 260, [1-(4,4-difluorocyclohex-1-en-1-yl)cyclobutyl](pyridin-2-yl)methanol] |
| >85 | 0.5 | 42 |  | N[C@@H]1CCC[C@H]1[C@@H](O)C1(c2cccc(C(F)(F)F)c2)CCC1 [Example 227, (R)-[(1R,2R)-2-aminocyclopentyl]{1-[3-(trifluoromethyl)phenyl]-cyclobutyl}methanol] |
| >85 | 3.87 | >85 |  | NC1CCCC1C(O)C1(c2ccc(C(F)(F)F)cc2)CCC1 (centres unmarked) [Example 205, (2-aminocyclopentyl) {1-[4-(trifluoromethyl)phenyl]cyclobutyl}methanol] |
| 35 | 4.92 | 0.020 |  | OC(c1ccccn1)C1(c2nc3ccc(F)cc3s2)CCC1 (centres unmarked) [Example 300, [1-(6-fluoro-1,3-benzothiazol-2-yl)cyclobutyl](pyridin-2-yl)methanol] |
| 0.05 | > 20 | <0.01 | > 20 | OC(C1CCc2cccnc21)C1(c2ccccc2C(F)(F)F)CCC1 (stereo not drawn) [Example 198, (syn)-6,7-dihydro-5H-cyclopenta[b]pyridin-7-yl{1-[2-(trifluoromethyl)-phenyl]cyclobutyl}methanol] |
| 51 | 3.66 | 50 |  | O=C1CC(c2cccc(OC(F)(F)F)c2)(C(O)c2ccccn2)C1 (centres unmarked) [Example 237, 3-[hydroxy(pyridin-2-yl)methyl]-3-[3-(trifluoromethoxy)phenyl]-cyclobutanone] |
